Experimental data from patent US7855228B2, “Antibiotics targeting MreB” (The Board of Trustees of the Leland Stamford Junior …, priority 2005, dated 2010).
Converted amounts (≈) assume the structure as drawn. Read-outs that look alike come from different tables or passages of the source.

Experiments:
[1] = molecular target: T1, MreB-GFP fusion protein (Escherichia coli, UniProt P0A9X4); assay: MreB helical structures in vivo (MreB-GFP); assay type: cell-based, E. coli; conditions: 10 μg/ml
T1 construct: expressed in transfected cells; host or cells: E. coli JM109 carrying pMreB1-GFP (native mreB promoter)
T1 sequence (P0A9X4 whole entry, the tested form may be a part): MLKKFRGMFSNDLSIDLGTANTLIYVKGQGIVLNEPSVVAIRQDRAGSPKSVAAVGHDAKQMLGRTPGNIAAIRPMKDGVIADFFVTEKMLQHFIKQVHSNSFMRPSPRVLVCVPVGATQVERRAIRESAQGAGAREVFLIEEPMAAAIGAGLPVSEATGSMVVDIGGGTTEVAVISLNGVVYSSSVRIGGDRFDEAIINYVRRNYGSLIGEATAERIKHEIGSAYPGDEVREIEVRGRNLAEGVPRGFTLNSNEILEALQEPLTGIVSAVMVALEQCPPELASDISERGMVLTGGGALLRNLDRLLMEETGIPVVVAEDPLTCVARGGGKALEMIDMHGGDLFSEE
Description: FIG. 11. In vivo effects of A22. Exponentially growing JM109/pMreB1-GFP cells were treated with 10 μg/ml of A22, and changes in cell shape and GFP fluorescence were observed. (a, b) no treatment; (c, d) 30 min after A22 treatment; (e, f) 60 min after A22 treatment; (g, h) 120 min after A22 treatment.
It was recently shown that the MreB forms helical structures in E. coli as well as B. subtilis. […] In rounded cells, MreB-GFP appeared as discrete dots located close to the cell surface (FIGS. 11e-11h), which may be the result of aggregation of MreB-GFP protein de-polymerized by A22.
Construction of a mreB-gfp fusion plasmid A DNA fragment encoding the wild-type mreB gene was PCR-amplified from pMreB1 with primers (SEQ ID NO:5) 5′-[…]-3′ and (SEQ ID NO:6) 5′-[…]-3′. After cutting with Xba I and Nhe I, the PCR-generated DNA fragments were ligated to an XbaI-NheI-cut gfp vector pQIB-T7-GFP (Qbiogene Inc., Irvine, Calif., USA), resulting in an mreB-gfp translational fusion. From the resulting plasmid, an Aor51HI-HindIII fragment encoding the C-terminal portion of MreB fused with GFP was isolated and used to replace the Aor51HI-HindIII fragment of pMreB1, resulting in a plasmid pMreB1-GFP that expresses the MreB-GFP fusion protein from the native mreB promoter. […]

[2] = molecular target: T2, MreB (Caulobacter vibrioides, UniProt A0A0H3C7V4); assay: Chromatin immunoprecipitation with anti-MreB; assay type: cell-based, Caulobacter crescentus; conditions: in the presence of A22
T2 construct: endogenous in cells; host or cells: Caulobacter crescentus cells (formaldehyde-crosslinked extracts)
T2 sequence (A0A0H3C7V4 whole entry): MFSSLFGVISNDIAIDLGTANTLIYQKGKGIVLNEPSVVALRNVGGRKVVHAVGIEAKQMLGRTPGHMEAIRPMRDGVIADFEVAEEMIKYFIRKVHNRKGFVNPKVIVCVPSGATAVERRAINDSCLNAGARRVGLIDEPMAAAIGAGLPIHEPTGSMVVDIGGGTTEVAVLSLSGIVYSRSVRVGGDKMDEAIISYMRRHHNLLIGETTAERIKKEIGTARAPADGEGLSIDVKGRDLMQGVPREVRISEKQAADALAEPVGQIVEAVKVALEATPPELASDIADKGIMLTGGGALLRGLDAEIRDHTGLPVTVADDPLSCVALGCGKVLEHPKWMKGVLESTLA
Description: MreB Associates with Origin-Proximal Loci. The specific inhibition of origin movement by A22 raises the possibility that the duplicated origin moves to the opposite pole through a specific physical association with MreB, much as eukaryotic centromeres are segregated by association with microtubules. We sought to detect such an association in vivo by chromatin immunoprecipitation (ChIP). Following previously established protocols, Caulobacter extracts were ChIP'ed with polyclonal antisera raised against purified Caulobacter MreB. PCR was then used to amplify specific segments of the Caulobacter chromosome. […] We detected a faint signal with primers to the dnaA promoter located 6 kb to the right of the origin (FIG. 8), possibly reflecting the fact that dnaA is at the edge of the MreB binding region.
Chromatin Immunoprecipitations. Formaldehyde-crosslinked chromatin immunoprecipitation was performed as described previously. The anti-MreB antibody was raised by cloning the mreB coding sequence into the pET28a vector (Novagen). The resulting His6-tagged MreB was overexpressed in BL21(DE3)/pLysS E. coli and purified using Qiagen Ni2+-NTA agarose as described previously. Two milligrams of purified His6-MreB was used to immunize two rabbits (Josman Laboratories, Napa, Calif.). Oligonucleotide primer sequences for the regions PCR amplified are available upon request.

[3] = tested on: Caulobacter DNA replication; assay: Analysis of DNA replication (32P-labeled dGTP incorporation, DNA-content FACS); assay type: cell-based, Caulobacter crescentus
Description: We first examined the incorporation of radiolabeled dGTP into DNA, which linearly correlates with the rate of DNA replication. […] To assess the effect of A22 on DNA replication during the cell cycle, the radiolabeled nucleotide incorporation assay was repeated using synchronized cultures at different points in the cell cycle. Untreated cells display a dramatic rise in radioactivity levels characteristic of DNA replication initiation at the swarmer-to-stalked cell transition. This rise in radioactivity levels was also observed in A22-treated cells (FIG. 6A).
Finally, we examined the DNA content of A22-treated cells by FACS.
Analysis of DNA Replication. DNA replication was assessed by incorporation of 32P-labeled dGTP) or chromomycin-stained DNA-content FACS analysis as described previously.

[4] = tested on: E. coli K-12 strains (ponB, mreB alleles); assay: MICs of mecillinam and A22 for E. coli K-12 strains; assay type: cell-based; conditions: for MIC: Escherichia coli
Description: Determination of MIC Minimal inhibitory concentrations (MICs) were determined using a standard 2-fold serial dilution format on L agar plates. Ten microliters of stationary culture diluted in 0.85% NaCl to 10^6 cells/ml were spotted on per plate. […] MICs were also determined on Mueller Hinton agar plates (0.2% beef extract, 1.75% acid digest of casein, 0.15% soluble starch, 1.5% agar, pH 7.3).

Q: Which results are given for `N=C(N)SCc1ccc(Cl)c(Cl)c1` [Compound 1, S-(3,4-dichlorobenzyl)isothiourea]?
A: MreB-GFP dots and bands (helical structures) ([1]; 30-minute treatment, JM109 cells): fluorescent dots and bands disappeared; Cell shape of MreB-GFP expressing JM109 cells ([1]; after 120 minutes): almost spherical; Origin coimmunoprecipitation with MreB [2]: significantly reduced, though not abolished; Incorporation of radiolabeled dGTP, asynchronous cultures [3]: does not interfere with bulk DNA synthesis; Incorporation of radiolabeled dGTP, synchronized cultures (replication initiation) ([3]; 10 μg/ml A22 or 5 mg/ml HU): slightly delayed replication initiation; DNA content by FACS ([3]; 10 μg/ml, 8 hr): predominantly contained cells with two chromosomes; MIC ([4]; read-out: MICs, strain JA221 (ponB −, mreB221)): 100 µg/mL (≈ 425 µM); MIC ([4]; read-out: MICs, strain JE1011 (ponB +, mreB +)): 6.25 µg/mL (≈ 26.6 µM); MIC ([4]; read-out: MICs, strain JM109/pMW218 (ponB +, mreB +/−)): 6.25 µg/mL (≈ 26.6 µM); MIC ([4]; read-out: MICs, strain JM109/pMreB1 (ponB +, mreB +/+)): 25 µg/mL (≈ 106 µM); MIC ([4]; read-out: MICs, strain JM109/pMreB221 (ponB +, mreB +/mreB221)): 100 µg/mL (≈ 425 µM); MIC ([4]; read-out: MICs, strain JST975 (ponB −, mreB +)): 1.6 µg/mL (≈ 6.8 µM); MIC ([4]; read-out: MICs, strain JSTA220 (ponB −, mreB +)): 3.12 µg/mL (≈ 13.3 µM); MIC ([4]; read-out: MICs, strain JSTA221 (ponB −, mreB221)): 100 µg/mL (≈ 425 µM); MIC ([4]; read-out: MICs, strain WA220 (ponB +, mreB +)): 6.25 µg/mL (≈ 26.6 µM); MIC ([4]; read-out: MICs, strain WA221 (ponB +, mreB221)): > 100 µg/mL; MICs ([4]; strain JST975 (ponB −, mreB +), listed as A22): 3.125 µg/mL
